Experimental findings from patent US8304419B2, “Chemical compounds” (priority 2007, dated 2012) are described below.

Each structure is given as a SMILES string. Counter-ions that a name gives are not always drawn.

One assay deals with HIV wild type (WTRVA). In words: HeLa cell assay, wild type virus (WTRVA). It is filed as cell-based, HIV-1. On the set-up: scale not given here. Conditions: Human immunodeficiency virus 1, HeLa, HeLa cell assay; read-out: IC50 against WTRVA.
For the compound `CCc1cc(C#N)cc(Oc2c(Cl)ccc(CNC(=O)c3[nH]cnc3Cl)c2F)c1` [Example 148, 4-chloro-N-({4-chloro-3-[(3-cyano-5-ethylphenyl)oxy]-2-fluorophenyl}methyl)-1H-imidazole-5-carboxamide], the IC50 is < 0.01 µM.

Regarding `N#Cc1cc(Oc2c(Cl)ccc(CNC(=O)c3[nH]c(N)nc3Cl)c2F)cc(C(F)F)c1` [Example 327, 2-amino-4-chloro-N-[(4-chloro-3-{[3-cyano-5-(difluoromethyl)phenyl]oxy}-2-fluorophenyl)methyl]-1H-imidazole-5-carboxamide trifluoroacetate], the IC50 was < 0.01 µM.

As for `C=CCc1cc(C#N)cc(Oc2c(Cl)ccc(CNC(=O)c3[nH]c(C)nc3Cl)c2F)c1` [Example 248, 4-chloro-N-[(4-chloro-3-{[3-cyano-5-(2-propen-1-yl)phenyl]oxy}-2-fluorophenyl)methyl]-2-methyl-1H-imidazole-5-carboxamide trifluoroacetate], the IC50 is < 0.01 µM.

In the case of `CCc1cc(C#N)cc(Oc2c(Cl)ccc(CNC(=O)c3[nH]c(C)nc3Br)c2F)c1` [Example 149, 4-bromo-N-({4-chloro-3-[(3-cyano-5-ethylphenyl)oxy]-2-fluorophenyl}methyl)-2-methyl-1H-imidazole-5-carboxamide], the IC50 is < 0.01 µM.

Staying with this assay, now noted: Human immunodeficiency virus 1, HeLa, HeLa-CD4-LTR-β-gal cells, wild type virus; read-out: WTRVA activity level.
Consider `N#Cc1cc(Cl)cc(Oc2c(Cl)ccc(CNC(=O)c3cc4ccc(OCCO)cc4[nH]3)c2F)c1` [Example 142, N-({4-chloro-3-[(3-chloro-5-cyanophenyl)oxy]-2-fluorophenyl}methyl)-6-[(2-hydroxyethyl)oxy]-1H-indole-2-carboxamide], for which the IC50 is < 0.01 µM.

For `CN(Cc1ccc(Cl)c(Oc2cc(Cl)cc(C#N)c2)c1F)C(=O)c1[nH]cnc1Cl` [Example 132, 4-chloro-N-({4-chloro-3-[(3-chloro-5-cyanophenyl)oxy]-2-fluorophenyl}methyl)-N-methyl-1′-imidazole-5-carboxamide trifluoroacetate], the IC50 was < 0.01 µM.

Turning to `N#Cc1cc(Cl)cc(Oc2c(Cl)ccc(CNC(=O)c3cc4cc(OCC(CO)CO)ccc4[nH]3)c2F)c1` [Example 22, N-({4-chloro-3-[(3-chloro-5-cyanophenyl)oxy]-2-fluorophenyl}methyl)-5-{[3-hydroxy-2-(hydroxymethyl)propyl]oxy}-1H-indole-2-carboxamide], the IC50 was < 0.01 µM.

As to `COc1ccc(C(=O)NCc2ccc(Cl)c(Oc3cc(Cl)cc(C#N)c3)c2)c(OC)c1` [Example 6, N-({4-chloro-3-[(3-chloro-5-cyanophenyl)oxy]phenyl}methyl)-2,4-bis(methyloxy)benzamide], the IC50 lay within 0.01 to 1 µM.

With `N#Cc1cc(Cl)cc(Oc2c(Cl)ccc(CNC(=O)c3cc4cc(Cl)ccc4o3)c2F)c1` [Example 49, 5-chloro-N-({4-chloro-3-[(3-chloro-5-cyanophenyl)oxy]-2-fluorophenyl}methyl)-1-benzofuran-2-carboxamide trifluoroacetate], the IC50 was > 1 µM.

On to `COc1ccc(C(=O)NCc2ccc(Cl)c(Oc3cc(Cl)cc(C#N)c3)c2F)c(C)c1` [Example 17, N-({4-chloro-3-[(3-chloro-5-cyanophenyl)oxy]-2-fluorophenyl}methyl)-2-methyl-4-(methyloxy)benzamide], for which the IC50 fell in the range of 0.01 to 1 µM.

Take `CCN(CC)S(=O)(=O)c1c[nH]c(C(=O)NCc2ccc(Cl)c(Oc3cc(Cl)cc(C#N)c3)c2F)c1` [Example 76, N-({4-chloro-3-[(3-chloro-5-cyanophenyl)oxy]-2-fluorophenyl}methyl)-4-[(diethylamino)sulfonyl]-1H-pyrrole-2-carboxamide trifluoroacetate]: the IC50 fell in the range of 0.01 to 1 µM.

For the compound `COc1ccc2[nH]c(C(=O)NCc3ccc(Cl)c(Oc4cc(Cl)cc(C#N)c4)c3)cc2c1` [Example 10, N-({4-chloro-3-[(3-chloro-5-cyanophenyl)oxy]phenyl}methyl)-5-(methyloxy)-1H-indole-2-carboxamide], the IC50 lay within 0.01 to 1 µM.

On to `N#Cc1cc(Cl)cc(Oc2c(Cl)ccc(CNC(=O)c3[nH]cnc3[N+](=O)[O-])c2F)c1` [Example 68, N-({4-chloro-3-[(3-chloro-5-cyanophenyl)oxy]-2-fluorophenyl}methyl)-4-nitro-1H-imidazole-5-carboxamide trifluoroacetate], for which the IC50 was < 0.01 µM.

With `CC(=O)Nc1ccc2[nH]c(C(=O)NCc3ccc(Cl)c(Oc4cc(Cl)cc(C#N)c4)c3F)cc2c1` [Example 121, 5-(acetylamino)-N-({4-chloro-3-[(3-chloro-5-cyanophenyl)oxy]-2-fluorophenyl}methyl)-1H-indole-2-carboxamide], the IC50 is < 0.01 µM.

Consider `N#Cc1cc(Cl)cc(Oc2c(Cl)ccc(CNC(=O)c3cc4ccc(N)cc4[nH]3)c2F)c1` [Example 123, 6-amino-N-({4-chloro-3-[(3-chloro-5-cyanophenyl)oxy]-2-fluorophenyl}methyl)-1H-indole-2-carboxamide trifluoroacetate], for which the IC50 was < 0.01 µM.

`CN(C)c1ccc2[nH]c(C(=O)NCc3ccc(Cl)c(Oc4cc(Cl)cc(C#N)c4)c3F)cc2c1` [Example 126, N-({4-chloro-3-[(3-chloro-5-cyanophenyl)oxy]-2-fluorophenyl}methyl)-5-(dimethylamino)-1H-indole-2-carboxamide]: the IC50 is < 0.01 µM.

Turning to `N#Cc1cc(Cl)cc(Oc2c(Cl)ccc(CNC(=O)c3cc4ccccc4[nH]3)c2F)c1` [Example 28, N-({4-chloro-3-[(3-chloro-5-cyanophenyl)oxy]-2-fluorophenyl}methyl)-1H-indole-2-carboxamide], the IC50 is < 0.01 µM.

`N#Cc1cc(Cl)cc(Oc2c(Cl)ccc(CNC(=O)c3cc4cc(NC(=O)[C@@H]5CCCN5)ccc4[nH]3)c2F)c1` [Example 118, N-({4-chloro-3-[(3-chloro-5-cyanophenyl)oxy]-2-fluorophenyl}methyl)-5-(L-prolylamino)-1H-indole-2-carboxamide trifluoroacetate]: the IC50 was < 0.01 µM.

For the compound `Cc1c(C(=O)NCc2ccc(Cl)c(Oc3cc(Cl)cc(C#N)c3)c2F)oc2ccccc12` [Example 48, N-({4-chloro-3-[(3-chloro-5-cyanophenyl)oxy]-2-fluorophenyl}methyl)-3-methyl-1-benzofuran-2-carboxamide trifluoroacetate], the IC50 lay within 0.01 to 1 µM.

On to `N#Cc1cc(Cl)cc(Oc2c(Cl)ccc(CNC(=O)c3c[nH]cn3)c2F)c1` [Example 84, N-({4-chloro-3-[(3-chloro-5-cyanophenyl)oxy]-2-fluorophenyl}methyl)-1H-imidazole-4-carboxamide trifluoroacetate], for which the IC50 was < 0.01 µM.

As to `COc1ccc2cc(C(=O)NCc3ccc(Cl)c(Oc4cc(Cl)cc(C#N)c4)c3)[nH]c2c1` [Example 7, N-({4-chloro-3-[(3-chloro-5-cyanophenyl)oxy]phenyl}methyl)-6-(methyloxy)-1H-indole-2-carboxamide], the IC50 is 0.01 to 1 µM.

With `N#Cc1cc(Cl)cc(Oc2c(Cl)ccc(CNC(=O)c3[nH]c4cc(Cl)ccc4c3Cl)c2F)c1` [Example 55, 3,6-dichloro-N-({4-chloro-3-[(3-chloro-5-cyanophenyl)oxy]-2-fluorophenyl}methyl)-1H-indole-2-carboxamide trifluoroacetate], the IC50 lay within 0.01 to 1 µM.

In the case of `CSc1ncc(C(=O)NCc2ccc(Cl)c(Oc3cc(Cl)cc(C#N)c3)c2F)[nH]1` [Example 66, N-({4-chloro-3-[(3-chloro-5-cyanophenyl)oxy]-2-fluorophenyl}methyl)-2-(methylthio)-1H-imidazole-4-carboxamide trifluoroacetate], the IC50 is 0.01 to 1 µM.

On to `N#Cc1cc(Cl)cc(Oc2c(Cl)ccc(CNC(=O)c3cc4ccc([N+](=O)[O-])cc4[nH]3)c2F)c1` [Example 31, N-({4-chloro-3-[(3-chloro-5-cyanophenyl)oxy]-2-fluorophenyl}methyl)-6-nitro-1H-indole-2-carboxamide], for which the IC50 is 0.01 to 1 µM.
